Patent publication US11149054B2, “Oxysterols and methods of use thereof” (Sage Therapeutics, Inc., priority 2016, dated 2021)
pEC50: −log10 of the molar value. Like-named read-outs stand apart in the source and are kept apart here.

How the values were obtained:
[1] = biological target: GlunN1/GluN2A glutamate receptors (Homo sapiens (Human), UniProt Q05586+Q12879); assay: Whole-cell patch clamp of mammalian cells (Ionworks Barracuda), positive allosteric modulation, GluN1/GluN2A; type: cell-based
Sequence of GlunN1/GluN2A glutamate receptors (Q12879 23-1464, other chains not shown): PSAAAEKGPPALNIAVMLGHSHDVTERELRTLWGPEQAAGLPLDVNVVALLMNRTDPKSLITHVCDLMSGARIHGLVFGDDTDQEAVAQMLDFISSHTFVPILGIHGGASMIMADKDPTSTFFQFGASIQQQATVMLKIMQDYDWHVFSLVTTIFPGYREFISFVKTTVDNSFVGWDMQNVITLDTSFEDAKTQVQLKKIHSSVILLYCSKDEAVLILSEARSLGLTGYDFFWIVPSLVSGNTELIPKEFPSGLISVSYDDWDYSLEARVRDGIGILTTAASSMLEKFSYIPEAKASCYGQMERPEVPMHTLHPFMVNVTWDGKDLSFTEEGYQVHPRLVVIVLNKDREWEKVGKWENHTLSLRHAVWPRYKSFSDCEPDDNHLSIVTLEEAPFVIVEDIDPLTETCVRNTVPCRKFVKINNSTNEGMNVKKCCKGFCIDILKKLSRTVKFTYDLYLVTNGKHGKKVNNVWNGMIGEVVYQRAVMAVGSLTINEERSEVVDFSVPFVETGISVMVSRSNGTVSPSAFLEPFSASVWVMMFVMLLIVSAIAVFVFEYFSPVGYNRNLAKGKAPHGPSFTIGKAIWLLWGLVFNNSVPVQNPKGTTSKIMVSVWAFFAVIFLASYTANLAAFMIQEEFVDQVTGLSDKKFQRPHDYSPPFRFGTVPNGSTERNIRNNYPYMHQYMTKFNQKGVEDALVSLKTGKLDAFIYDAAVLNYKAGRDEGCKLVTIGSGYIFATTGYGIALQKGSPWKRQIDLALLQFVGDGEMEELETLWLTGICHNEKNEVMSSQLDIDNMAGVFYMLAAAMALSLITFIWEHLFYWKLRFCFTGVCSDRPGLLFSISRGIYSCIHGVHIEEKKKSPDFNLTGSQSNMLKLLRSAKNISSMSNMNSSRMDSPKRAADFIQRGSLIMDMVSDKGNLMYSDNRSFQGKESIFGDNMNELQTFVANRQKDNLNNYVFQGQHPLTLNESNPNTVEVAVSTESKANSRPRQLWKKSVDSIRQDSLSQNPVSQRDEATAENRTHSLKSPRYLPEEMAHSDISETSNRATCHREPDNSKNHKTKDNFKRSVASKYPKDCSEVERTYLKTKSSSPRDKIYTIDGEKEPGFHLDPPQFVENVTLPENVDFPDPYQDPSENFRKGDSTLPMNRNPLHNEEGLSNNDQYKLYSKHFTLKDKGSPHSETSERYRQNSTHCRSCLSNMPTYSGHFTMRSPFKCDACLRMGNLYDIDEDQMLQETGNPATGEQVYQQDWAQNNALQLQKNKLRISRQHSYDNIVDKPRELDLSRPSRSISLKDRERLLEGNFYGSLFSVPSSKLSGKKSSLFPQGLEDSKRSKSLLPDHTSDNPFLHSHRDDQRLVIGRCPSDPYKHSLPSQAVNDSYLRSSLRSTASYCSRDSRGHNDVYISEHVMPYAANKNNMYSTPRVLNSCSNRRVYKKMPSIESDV
Procedure: (§1) The measurements were performed using Ion Works Barracuda platform following this procedure:
(§2) Electrophysiological Procedures:
(§3) • a) Intracellular solution (mM): 50 mM CsCl, 90 mM CsF, 2 mM MgCl2, 5 mM EGTA, 10 mM HEPES. Adjust to pH 7.2 with CsOH. • b) Extracellular solution, HB-PS (composition in mM): NaCl, 137; KCl, 1.0; CaCl2), 5; HEPES, 10; Glucose, 10; pH adjusted to 7.4 with NaOH (refrigerated until use). • c) Holding potential: −70 mV, potential during agonist/PAM application: −40 mV. Recording Procedure: • a) Extracellular buffer will be loaded into the PPC plate wells (11 μL per well). Cell suspension will be pipetted into the wells (9 μL per well) of the PPC planar electrode. • b) Whole-cell recording configuration will be established via patch perforation with membrane currents recorded by on-board patch clamp amplifiers. • c) Two recordings (scans) will be performed. First, during pre-application of test article alone (duration of pre-application—[…]) and second, during test articles and agonist (EC20 L-glutamate and 30 μM glycine) co-application to detect positive modulatory effects of the test article. […] Potentiating Effect of Positive Allosteric Modulators (PAM) on the Channel
(§4) PAM concentration-response data will be fitted to an equation of the form: % Activation=% L-glutamate EC20+{(% MAX−% L-glutamate EC20)/[1+([Test]/EC50)^N]}, where [Test] will be the concentration of PAM (test article), EC50 will be the concentration of PAM producing half-maximal activation, N will be the Hill coefficient, % L-glutamate EC20 will be the percentage of the current Elicited with L-glutamate EC20, % MAX is the percentage of the current activated with the highest dose of PAM co-admitted with L-glutamate EC20 and % Activation will be the percentage of the current elicited with L-glutamate EC10-30 at each PAM concentration. The maximal amplitude of the evoked currents are measured and defined as Peak Current Amplitude (PCA).

[2] = biological target: GluN2B glutamate receptors (Homo sapiens (Human), UniProt Q05586+Q13224); assay: Whole-cell patch clamp of mammalian cells (Ionworks Barracuda), positive allosteric modulation, GluN2B; type: cell-based; conditions: for Emax: read-out: Avg Emax 2B (%)
Sequence of GluN2B glutamate receptors (Q13224 27-1484, other chains not shown): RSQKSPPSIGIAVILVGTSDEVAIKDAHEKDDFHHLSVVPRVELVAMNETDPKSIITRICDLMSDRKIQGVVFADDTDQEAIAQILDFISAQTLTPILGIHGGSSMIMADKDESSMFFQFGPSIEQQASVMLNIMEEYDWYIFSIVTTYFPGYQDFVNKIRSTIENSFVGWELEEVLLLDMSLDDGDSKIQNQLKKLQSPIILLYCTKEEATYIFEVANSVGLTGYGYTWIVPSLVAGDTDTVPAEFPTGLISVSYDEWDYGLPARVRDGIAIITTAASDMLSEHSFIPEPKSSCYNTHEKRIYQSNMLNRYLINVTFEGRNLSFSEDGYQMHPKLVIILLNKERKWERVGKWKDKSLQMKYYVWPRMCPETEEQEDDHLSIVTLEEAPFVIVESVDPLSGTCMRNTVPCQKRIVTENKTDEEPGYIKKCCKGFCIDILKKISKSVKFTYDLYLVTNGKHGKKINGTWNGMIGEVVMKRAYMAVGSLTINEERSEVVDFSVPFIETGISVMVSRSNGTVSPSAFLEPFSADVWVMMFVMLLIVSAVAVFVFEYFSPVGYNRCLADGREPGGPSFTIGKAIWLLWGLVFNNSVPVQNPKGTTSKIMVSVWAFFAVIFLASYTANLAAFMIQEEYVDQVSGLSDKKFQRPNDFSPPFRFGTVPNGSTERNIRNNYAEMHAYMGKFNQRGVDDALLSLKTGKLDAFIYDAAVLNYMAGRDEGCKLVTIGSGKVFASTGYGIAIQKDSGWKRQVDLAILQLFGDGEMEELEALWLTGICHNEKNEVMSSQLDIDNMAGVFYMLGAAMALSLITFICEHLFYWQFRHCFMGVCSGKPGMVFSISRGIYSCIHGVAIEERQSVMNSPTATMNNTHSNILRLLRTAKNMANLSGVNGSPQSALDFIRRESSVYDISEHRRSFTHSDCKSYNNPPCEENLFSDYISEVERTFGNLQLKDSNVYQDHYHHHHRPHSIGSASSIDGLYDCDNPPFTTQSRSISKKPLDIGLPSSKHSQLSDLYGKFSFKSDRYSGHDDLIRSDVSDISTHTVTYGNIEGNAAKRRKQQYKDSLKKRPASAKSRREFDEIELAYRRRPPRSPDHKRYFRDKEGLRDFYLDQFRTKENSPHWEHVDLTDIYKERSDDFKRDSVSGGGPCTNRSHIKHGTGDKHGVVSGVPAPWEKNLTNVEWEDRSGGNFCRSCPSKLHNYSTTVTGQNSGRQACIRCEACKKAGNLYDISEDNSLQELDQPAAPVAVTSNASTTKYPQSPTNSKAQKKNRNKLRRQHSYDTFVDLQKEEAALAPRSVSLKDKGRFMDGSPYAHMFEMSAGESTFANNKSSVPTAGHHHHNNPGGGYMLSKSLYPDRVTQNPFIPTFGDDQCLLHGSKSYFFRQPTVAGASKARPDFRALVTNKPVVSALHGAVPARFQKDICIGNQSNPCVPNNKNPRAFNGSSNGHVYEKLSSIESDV
Procedure: as §1, §2, §3, §4

[3] = HEK293 cells, % potentiation of current elicited with EC20 L-glutamate and 30 μM glycine, read-out: Avg Emax 2A (%)
[4] = % potentiation of current elicited with EC20 L-glutamate and 30 μM glycine
[5] = HEK293, read-out: Avg Emax 2A (%)
[6] = HEK293 cells, co-application with EC20 L-glutamate and 30 μM glycine, 8-point concentration-response, read-out: Avg EC50 2A
[7] = co-application with EC20 L-glutamate and 30 μM glycine, 8-point concentration-response, read-out: Avg EC50 2B

C[C@H](CCC1(O)CCOCC1)[C@H]1CC[C@H]2[C@@H]3CC[C@H]4C[C@](O)(C(F)(F)F)CC[C@]4(C)[C@H]3CC[C@]12C [Compound 11]
Emax [1, 3]: 151%
Emax [2, 4]: 157%

CC[C@]1(O)CC[C@@]2(C)[C@@H](CC[C@@H]3[C@@H]2CC[C@]2(C)[C@@H]([C@H](C)CC[C@@H](O)c4ccccn4)CC[C@@H]32)C1 [Compound 7030]
Emax [1, 3]: 28.3%
Emax [2, 4]: 74.7%

C[C@H](O)CC[C@@H](C)[C@H]1CC[C@H]2[C@@H]3CC=C4C[C@](O)(C(F)(F)F)CC[C@]4(C)[C@H]3CC[C@]12C [Compound 2602]
pEC50 [1]: 6.54
Emax [1, 3]: 163%
pEC50 [2]: 6.55
Emax [2, 4]: 367%

C[C@H](CC[C@@]1(O)CCOC1)[C@H]1CC[C@H]2[C@@H]3CC=C4C[C@](O)(C(F)(F)F)CC[C@]4(C)[C@H]3CC[C@]12C [Compound 3495]
Emax [1, 5]: 107%
Emax [2]: 146%

CCC(O)CC[C@@H](C)[C@H]1CC[C@H]2[C@@H]3CC=C4C[C@](O)(CC)CC[C@@H]4[C@H]3CC[C@]12C (some centres unmarked) [Compound 8564]
pEC50 [1]: 6.33
Emax [1, 3]: 252%
pEC50 [2]: 6.31
Emax [2, 4]: 310%

CC[C@]1(O)CC[C@H]2[C@@H](CC[C@@H]3[C@@H]2CC[C@]2(C)[C@@H]([C@H](C)CCC4(O)CCC(C)(C)CC4)CC[C@@H]32)C1 [Compound 8963]
Emax [1, 3]: 8.4%
pEC50 [1, 6]: < 5.00
Emax [2, 4]: 55.9%
pEC50 [2, 7]: < 5.00

C[C@H](CC[C@](C)(O)c1ccccc1)[C@H]1CC[C@H]2[C@@H]3CC=C4C[C@@](C)(O)CC[C@]4(C)[C@H]3CC[C@]12C [Compound 7468]
Emax [1, 5]: 273%
Emax [2]: 317%

C[C@H](CCCC1(O)CCC(F)(F)CC1)[C@H]1CC[C@H]2[C@@H]3CC[C@H]4C[C@](O)(C(F)(F)F)CC[C@]4(C)[C@H]3CC[C@]12C [Compound 11786]
Emax [1, 3]: 152%
pEC50 [1, 6]: 6.23
Emax [2, 4]: 151%
pEC50 [2, 7]: 6.00

C[C@H](CCC(O)c1ccncc1)[C@H]1CC[C@H]2[C@@H]3CC=C4C[C@@](C)(O)CC[C@]4(C)[C@H]3CC[C@]12C (some centres unmarked) [Compound 154]
Emax [1, 3]: 18.2%
pEC50 [1, 6]: < 5.00

CC[C@]1(O)CC[C@@]2(C)[C@@H](CC[C@@H]3[C@@H]2CC[C@]2(C)[C@@H]([C@H](C)CCC(O)c4ccccc4)CC[C@@H]32)C1 (some centres unmarked) [Compound 6544]
pEC50 [1]: 6.25
Emax [1, 3]: 253%
pEC50 [2]: 6.30
Emax [2, 4]: 415%

C[C@H](CCC(O)(c1ccccc1)C(F)(F)F)[C@H]1CC[C@H]2[C@@H]3CC=C4C[C@@](C)(O)CC[C@]4(C)[C@H]3CC[C@]12C (some centres unmarked) [Compound 559]
Emax [1, 3]: 204%
Emax [2, 4]: 373%

CC[C@]1(O)CC[C@@]2(C)C(=CC[C@H]3[C@@H]4CC[C@H]([C@H](C)CC[C@@H](O)Cc5ccccc5)[C@@]4(C)CC[C@@H]32)C1 [Compound 6052]
pEC50 [1]: 6.37
Emax [1, 3]: 102%
pEC50 [2]: 6.63
Emax [2, 4]: 92.2%

C[C@H](CC[C@H](O)C1CCOCC1)[C@H]1CC[C@H]2[C@@H]3CC[C@H]4C[C@](O)(C(F)(F)F)CC[C@]4(C)[C@H]3CC[C@]12C [Compound 2080]
pEC50 [1]: 6.78
Emax [1, 3]: 77.2%
pEC50 [2]: 6.73
Emax [2, 4]: 147%

CCC1(C)CCC(O)(CC[C@@H](C)[C@H]2CC[C@H]3[C@@H]4CC[C@H]5C[C@](O)(C(F)(F)F)CC[C@]5(C)[C@H]4CC[C@]23C)CC1 (some centres unmarked) [Compound 4906]
Emax [1, 3]: 8.8%
pEC50 [1, 6]: < 5.00
Emax [2, 4]: 14.8%
pEC50 [2, 7]: < 5.00

CC[C@]1(O)CC[C@@]2(C)C(=CC[C@H]3[C@@H]4CC[C@H]([C@H](C)CC[C@@H](O)c5ccccc5)[C@@]4(C)CC[C@@H]32)C1 [Compound 861]
pEC50 [1]: 6.70
Emax [1, 3]: 183%
pEC50 [2]: 6.61
Emax [2, 4]: 390%

CC[C@]1(O)CC[C@@]2(C)[C@@H](CC[C@@H]3[C@@H]2CC[C@]2(C)[C@@H]([C@H](C)CC[C@H](O)c4ccccc4)CC[C@@H]32)C1 [Compound 6572]
pEC50 [1]: 6.42
Emax [1, 3]: 129%
pEC50 [2]: 5.87
Emax [2, 4]: 251%

C[C@H](CCCC1(O)CC1)[C@H]1CC[C@H]2[C@@H]3CC[C@H]4C[C@](O)(C(F)(F)F)CC[C@]4(C)[C@H]3CC[C@]12C [Compound 4115]
pEC50 [1]: 7.04
pEC50 [2]: 6.94

C[C@H](CC[C@]1(O)CC[C@@H](C)CC1)[C@H]1CC[C@H]2[C@@H]3CC[C@H]4C[C@](O)(C(F)(F)F)CC[C@]4(C)[C@H]3CC[C@]12C [Compound 3886]
Emax [1, 5]: 106%
Emax [2]: 164%

C[C@H](CCC1(O)CCC(C)(C)CC1)[C@H]1CC[C@H]2[C@@H]3CC[C@@H]4C[C@](O)(C(F)(F)F)CC[C@]4(C)[C@H]3C(=O)C[C@]12C [Compound 5294]
Emax [1, 3]: 32.4%
Emax [2, 4]: 13.9%

COC[C@H]1CC[C@](O)(CC[C@@H](C)[C@H]2CC[C@H]3[C@@H]4CC[C@H]5C[C@](O)(C(F)(F)F)CC[C@]5(C)[C@H]4CC[C@]23C)CC1 [Compound 4657]
pEC50 [1]: 6.37
Emax [1, 3]: 74%
pEC50 [2]: 6.89
Emax [2, 4]: 62.9%

CC[C@]1(O)CC[C@H]2C(=CC[C@@H]3[C@@H]2CC[C@]2(C)[C@@H]([C@H](C)CCCC4(O)CCC(F)(F)CC4)CC[C@@H]32)C1 [Compound 9810]
Emax [1, 3]: 87.1%
pEC50 [1, 6]: 6.91
Emax [2, 4]: 91.6%
pEC50 [2, 7]: 6.82

CC(C)[C@H](O)CCC[C@@H](C)[C@H]1CC[C@H]2[C@@H]3CC[C@H]4C[C@](O)(C(F)(F)F)CC[C@]4(C)[C@H]3CC[C@]12C [Compound 11828]
pEC50 [1]: 6.83
Emax [1, 5]: 142%
pEC50 [2]: 7.11
Emax [2]: 114%

CC[C@]1(O)CC[C@H]2[C@@H](CC[C@@H]3[C@@H]2CC[C@]2(C)[C@@H]([C@H](C)CC[C@H](O)C(C)C)CC[C@@H]32)C1 [Compound 4A77]
Emax [1, 3]: 382%
pEC50 [1, 6]: 6.37
Emax [2, 4]: 254%
pEC50 [2, 7]: 6.54

CC[C@]1(O)CC[C@H]2C(=CC[C@@H]3[C@@H]2CC[C@]2(C)[C@@H]([C@H](C)CC[C@]4(O)CCOC4)CC[C@@H]32)C1 [Compound 8603]
pEC50 [1]: 6.87
pEC50 [2]: 7.12

CC[C@]1(O)CC[C@H]2C(=CC[C@@H]3[C@@H]2CC[C@]2(C)[C@@H]([C@H](C)CCCC4(O)CCOCC4)CC[C@@H]32)C1 [Compound 10216]
Emax [1, 3]: 79.3%
pEC50 [1, 6]: 5.92
Emax [2, 4]: 121%
pEC50 [2, 7]: 6.35

C[C@H](CC[C@@]1(O)CCOC1)[C@H]1CC[C@H]2[C@@H]3CC[C@H]4C[C@](O)(C(F)(F)F)CC[C@]4(C)[C@H]3CC[C@]12C [Compound 2706]
pEC50 [1]: < 5.00
Emax [1, 3]: 96.8%
pEC50 [2]: 6.91
Emax [2, 4]: 139%

CC[C@]1(O)CC[C@@]2(C)C(=CC[C@H]3[C@@H]4CC[C@H]([C@H](C)CC[C@@H](O)c5cccc(C#N)c5)[C@@]4(C)CC[C@@H]32)C1 [Compound 6997]
pEC50 [1]: 6.43
Emax [1, 3]: 327%
pEC50 [2]: 6.38
Emax [2, 4]: 315%

C[C@H](CC[C@]1(O)CC[C@H](C)CC1)[C@H]1CC[C@H]2[C@@H]3CC[C@H]4C[C@](O)(C(F)(F)F)CC[C@]4(C)[C@H]3CC[C@]12C [Compound 3877]
pEC50 [2]: 6.29

CC[C@]1(O)CC[C@@]2(C)C(=CC[C@H]3[C@@H]4CC[C@H]([C@H](C)CC[C@H](O)c5ccc(F)cc5)[C@@]4(C)CC[C@@H]32)C1 [Compound 7146]
pEC50 [2]: 6.67

C[C@H](CC[C@@](C)(O)c1ccccc1)[C@H]1CC[C@H]2[C@@H]3CC=C4C[C@@](C)(O)CC[C@]4(C)[C@H]3CC[C@]12C [Compound 7467]
pEC50 [2]: < 5.00

C[C@H](CC[C@]1(O)CCOC1)[C@H]1CC[C@H]2[C@@H]3CC=C4C[C@](O)(C(F)(F)F)CC[C@]4(C)[C@H]3CC[C@]12C [Compound 3496]
pEC50 [1]: 7.45
